# Test results taken from publication PMC11062922 (Nature Chemical Biology, 2023).
# Read-outs that look alike come from different tables or passages of the source.
# Legend:
# ACOX1 = target: T1, ACOX1 (Homo sapiens, UniProt Q15067); test: Kinobeads two-dose competition binding: ACOX1; settings: sheet CATDS matrix 2; Gene Name ACOX1;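 further: competition of compounds with immobilized broad-spectrum kinase inhibitor beads in cell lysate at 100 and 1,000 nM, 45 min at 4 °C, bead-bound protein quantified by label-free MS versus DMSO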
# T1 construct: endogenous in cells
# T1 sequence (Q15067 1-660): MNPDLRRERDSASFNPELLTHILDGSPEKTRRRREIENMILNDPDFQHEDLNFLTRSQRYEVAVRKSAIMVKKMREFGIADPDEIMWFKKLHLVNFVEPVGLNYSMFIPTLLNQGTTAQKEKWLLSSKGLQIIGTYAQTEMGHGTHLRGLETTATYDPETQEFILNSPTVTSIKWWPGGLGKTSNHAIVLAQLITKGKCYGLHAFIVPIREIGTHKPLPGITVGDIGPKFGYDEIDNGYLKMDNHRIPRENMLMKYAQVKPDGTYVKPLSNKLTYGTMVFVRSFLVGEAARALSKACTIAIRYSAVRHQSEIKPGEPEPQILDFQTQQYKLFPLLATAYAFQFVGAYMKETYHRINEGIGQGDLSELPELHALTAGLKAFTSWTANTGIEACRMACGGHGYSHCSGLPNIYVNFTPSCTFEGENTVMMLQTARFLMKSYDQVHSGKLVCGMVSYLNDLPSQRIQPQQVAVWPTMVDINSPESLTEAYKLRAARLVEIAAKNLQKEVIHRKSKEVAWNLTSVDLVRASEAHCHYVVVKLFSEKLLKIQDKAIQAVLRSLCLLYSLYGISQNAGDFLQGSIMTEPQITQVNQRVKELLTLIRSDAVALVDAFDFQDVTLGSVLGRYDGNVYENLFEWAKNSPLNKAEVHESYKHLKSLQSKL
# AAK1 = target: T2, AAK1 (Homo sapiens, UniProt Q2M2I8); test: Kinobeads two-dose competition binding: AAK1; settings: for CATDS: sheet CATDS matrix 2, Gene Name AAK1; for potency estimated from few doses: read-out: Kinobeads Drugmatrix - all: apparent Kd, AAK1;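 on all read-outs here: kinobeads competition pulldown from cell lysate, compound preincubated 45 min at 4 °C, bead-bound protein measured by label-free mass spectrometry against DMSO vehicle control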
# T2 construct: to maximize the representation of endogenous proteins; endogenous in cells
# T2 sequence (Q2M2I8 whole entry): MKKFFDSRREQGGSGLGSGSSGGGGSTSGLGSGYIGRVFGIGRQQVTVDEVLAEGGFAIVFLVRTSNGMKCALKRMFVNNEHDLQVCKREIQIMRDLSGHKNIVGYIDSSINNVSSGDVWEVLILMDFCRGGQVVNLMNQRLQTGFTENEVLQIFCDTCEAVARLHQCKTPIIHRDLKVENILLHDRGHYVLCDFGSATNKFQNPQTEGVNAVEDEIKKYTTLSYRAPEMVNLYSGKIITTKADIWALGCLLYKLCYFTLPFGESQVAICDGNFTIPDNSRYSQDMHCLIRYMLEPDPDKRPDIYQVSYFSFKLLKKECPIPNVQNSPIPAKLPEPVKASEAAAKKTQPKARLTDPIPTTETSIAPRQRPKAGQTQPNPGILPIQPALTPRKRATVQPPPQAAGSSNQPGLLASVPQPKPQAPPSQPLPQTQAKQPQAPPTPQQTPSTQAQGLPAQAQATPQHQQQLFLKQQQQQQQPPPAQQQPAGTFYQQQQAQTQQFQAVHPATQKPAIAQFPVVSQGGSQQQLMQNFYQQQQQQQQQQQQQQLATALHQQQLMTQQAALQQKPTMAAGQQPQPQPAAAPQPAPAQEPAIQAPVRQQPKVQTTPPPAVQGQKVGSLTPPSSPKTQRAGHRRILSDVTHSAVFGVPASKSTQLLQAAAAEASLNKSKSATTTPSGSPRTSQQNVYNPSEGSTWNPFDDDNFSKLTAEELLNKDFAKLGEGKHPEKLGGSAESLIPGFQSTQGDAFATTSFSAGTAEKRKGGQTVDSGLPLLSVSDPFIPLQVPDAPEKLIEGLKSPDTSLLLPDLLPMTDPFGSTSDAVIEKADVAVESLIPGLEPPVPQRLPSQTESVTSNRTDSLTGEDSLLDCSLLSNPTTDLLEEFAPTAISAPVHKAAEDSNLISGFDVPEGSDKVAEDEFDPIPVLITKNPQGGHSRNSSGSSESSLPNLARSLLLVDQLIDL
# ABL1 = ABL1 (Homo sapiens, UniProt P00519); test: Kinobeads two-dose competition binding: ABL1; settings: sheet CATDS matrix 2; Gene Name ABL1
# Sequence of ABL1 (P00519 28-1130 limits assumed): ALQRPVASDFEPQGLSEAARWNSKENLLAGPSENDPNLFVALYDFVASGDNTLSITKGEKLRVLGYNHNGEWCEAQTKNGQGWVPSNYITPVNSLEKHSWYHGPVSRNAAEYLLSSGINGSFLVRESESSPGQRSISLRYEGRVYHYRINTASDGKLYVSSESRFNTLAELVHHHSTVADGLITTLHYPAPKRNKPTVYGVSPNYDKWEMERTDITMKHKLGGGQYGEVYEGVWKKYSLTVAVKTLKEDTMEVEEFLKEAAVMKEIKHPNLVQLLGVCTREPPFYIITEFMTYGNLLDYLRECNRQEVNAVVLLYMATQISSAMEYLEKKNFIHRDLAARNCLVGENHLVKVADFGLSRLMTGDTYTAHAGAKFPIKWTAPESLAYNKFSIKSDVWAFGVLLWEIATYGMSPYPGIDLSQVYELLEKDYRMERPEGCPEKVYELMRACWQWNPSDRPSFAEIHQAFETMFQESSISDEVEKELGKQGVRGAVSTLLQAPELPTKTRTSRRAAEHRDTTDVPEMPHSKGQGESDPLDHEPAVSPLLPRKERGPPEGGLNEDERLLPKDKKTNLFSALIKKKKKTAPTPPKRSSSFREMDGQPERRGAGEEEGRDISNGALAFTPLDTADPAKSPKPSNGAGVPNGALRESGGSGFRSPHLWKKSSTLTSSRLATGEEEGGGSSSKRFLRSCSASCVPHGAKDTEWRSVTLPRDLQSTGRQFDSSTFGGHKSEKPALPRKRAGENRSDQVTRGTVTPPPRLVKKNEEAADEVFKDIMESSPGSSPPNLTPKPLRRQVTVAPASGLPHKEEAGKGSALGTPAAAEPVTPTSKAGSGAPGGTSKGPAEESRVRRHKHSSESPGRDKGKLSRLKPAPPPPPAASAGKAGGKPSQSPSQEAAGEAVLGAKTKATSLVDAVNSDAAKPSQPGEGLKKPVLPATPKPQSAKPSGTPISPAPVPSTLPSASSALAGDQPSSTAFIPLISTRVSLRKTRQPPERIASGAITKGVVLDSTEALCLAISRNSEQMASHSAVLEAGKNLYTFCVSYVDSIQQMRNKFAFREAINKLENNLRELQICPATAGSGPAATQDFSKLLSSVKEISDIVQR
# ABL2 = target: T3, ABL2 (Homo sapiens, UniProt P42684); test: Kinobeads two-dose competition binding: ABL2; settings: sheet CATDS matrix 2; Gene Name ABL2
# T3 construct: endogenous in cells
# T3 sequence (P42684 whole entry): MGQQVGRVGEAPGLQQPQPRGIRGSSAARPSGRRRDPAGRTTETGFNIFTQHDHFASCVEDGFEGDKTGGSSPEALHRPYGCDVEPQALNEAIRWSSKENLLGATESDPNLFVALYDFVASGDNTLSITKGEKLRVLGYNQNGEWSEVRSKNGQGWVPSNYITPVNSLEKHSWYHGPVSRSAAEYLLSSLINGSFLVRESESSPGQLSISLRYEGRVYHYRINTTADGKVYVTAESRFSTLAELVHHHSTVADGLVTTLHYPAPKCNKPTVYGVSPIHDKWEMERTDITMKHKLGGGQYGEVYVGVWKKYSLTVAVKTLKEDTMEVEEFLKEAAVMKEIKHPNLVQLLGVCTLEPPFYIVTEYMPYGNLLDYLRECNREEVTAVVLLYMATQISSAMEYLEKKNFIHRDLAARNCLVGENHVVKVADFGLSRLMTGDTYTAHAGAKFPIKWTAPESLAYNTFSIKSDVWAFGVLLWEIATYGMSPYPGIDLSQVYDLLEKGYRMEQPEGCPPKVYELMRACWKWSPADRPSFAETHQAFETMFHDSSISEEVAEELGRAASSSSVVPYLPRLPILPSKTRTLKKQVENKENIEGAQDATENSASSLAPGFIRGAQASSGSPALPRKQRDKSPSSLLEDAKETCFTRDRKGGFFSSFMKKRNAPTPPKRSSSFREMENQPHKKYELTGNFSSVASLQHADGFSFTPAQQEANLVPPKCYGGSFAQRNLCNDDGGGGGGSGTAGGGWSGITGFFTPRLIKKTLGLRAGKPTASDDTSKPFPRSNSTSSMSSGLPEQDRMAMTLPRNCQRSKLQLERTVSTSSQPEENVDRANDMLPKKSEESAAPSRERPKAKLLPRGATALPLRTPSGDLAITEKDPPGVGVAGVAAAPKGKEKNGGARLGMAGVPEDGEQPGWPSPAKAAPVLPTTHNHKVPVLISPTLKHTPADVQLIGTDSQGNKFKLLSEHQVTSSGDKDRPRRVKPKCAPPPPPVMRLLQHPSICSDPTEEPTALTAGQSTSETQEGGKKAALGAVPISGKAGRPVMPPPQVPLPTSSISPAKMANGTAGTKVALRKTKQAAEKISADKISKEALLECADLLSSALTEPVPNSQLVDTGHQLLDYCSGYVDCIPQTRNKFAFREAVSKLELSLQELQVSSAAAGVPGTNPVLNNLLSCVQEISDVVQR
# ACAD11 = target: T4, ACAD11 (Homo sapiens, UniProt Q709F0); test: Kinobeads two-dose competition binding: ACAD11; settings: sheet CATDS matrix 2; Gene Name ACAD11
# T4 construct: endogenous in cells
# T4 sequence (Q709F0 1-780): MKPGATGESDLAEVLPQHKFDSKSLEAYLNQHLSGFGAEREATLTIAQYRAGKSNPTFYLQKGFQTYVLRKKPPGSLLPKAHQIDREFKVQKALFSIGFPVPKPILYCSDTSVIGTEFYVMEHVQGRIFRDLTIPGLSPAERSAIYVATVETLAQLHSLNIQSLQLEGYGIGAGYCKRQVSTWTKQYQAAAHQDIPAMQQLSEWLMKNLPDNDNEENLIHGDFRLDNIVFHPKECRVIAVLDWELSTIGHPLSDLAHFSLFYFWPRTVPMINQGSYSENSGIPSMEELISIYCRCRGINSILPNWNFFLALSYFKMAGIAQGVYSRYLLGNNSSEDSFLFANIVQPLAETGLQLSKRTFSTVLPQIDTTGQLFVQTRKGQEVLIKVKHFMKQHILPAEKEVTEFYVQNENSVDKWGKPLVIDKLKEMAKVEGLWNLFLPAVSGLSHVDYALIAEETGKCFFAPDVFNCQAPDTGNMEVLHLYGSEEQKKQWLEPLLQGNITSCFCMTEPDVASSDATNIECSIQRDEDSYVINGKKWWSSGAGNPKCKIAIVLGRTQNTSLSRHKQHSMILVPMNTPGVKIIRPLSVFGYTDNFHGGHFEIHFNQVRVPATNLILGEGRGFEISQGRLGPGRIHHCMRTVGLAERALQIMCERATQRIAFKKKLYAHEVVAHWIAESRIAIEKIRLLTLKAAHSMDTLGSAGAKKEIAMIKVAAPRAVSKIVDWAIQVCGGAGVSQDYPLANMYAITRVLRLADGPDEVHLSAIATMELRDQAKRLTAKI
# [1] = sheet "Kinobeads Drugmatrix - all", unit inferred, same values below 1000 recur in sheet "nanomolar"
Structure (SMILES),CATDS (ACOX1),CATDS (AAK1),CATDS (ABL1),CATDS (ABL2),CATDS (ACAD11),potency estimated from few doses (AAK1; [1]),potency estimated from few doses (AAK1)
NCC(NC(=O)c1cc(-c2cccnc2)c(-c2ccnc3[nH]ccc23)s1)c1ccccc1 (stereo not drawn) [GSK1323434A],0,0,0,0,0,–,–
CCCNC(=O)c1ccc(Nc2ncc(C(F)(F)F)c(Nc3ccccc3C(C)=O)n2)c(Br)c1 [BI00801818],0,0,0,0,0,–,–
NCCC(NC(=O)c1cc(Br)c(-c2ccnc3[nH]ccc23)s1)c1ccccc1 (stereo not drawn) [GSK1307810A],0,0,0,0,0,–,–
CCCN1CCC(Oc2cc(Nc3nc(Nc4cccc(F)c4C(N)=O)c4cc[nH]c4n3)c(OC)cc2Cl)CC1 [GSK1713088A],0,0,0,0,0,–,–
COc1ccc(Nc2nccc(N3CCC(NC(=O)c4cc5ccccc5s4)C3)n2)cc1 (stereo not drawn) [GSK1379738A],0,0,0,0,0,–,–
CC(C(=O)NC1CCN(c2ccnc(Nc3ccc(F)cc3)n2)C1)c1ccc(Cl)cc1 (stereo not drawn) [GSK1379713A],0,0,0,0,0,–,–
O=c1cc(N2CCOCC2)nc2n(Cc3cccc(Cl)c3Cl)ccn12 [GSK2286295A],0,0,0,0,0,–,–
CCCS(=O)(=O)Nc1ccc(F)c(-n2cc(-c3cncc(OC)c3)nn2)c1F [BI00865461],0,0,0,0,0,–,–
"Cn1cc(C2=C(c3cn(C4CCN(Cc5ccccn5)CC4)c4ccccc34)C(=O)NC2=O)c2ccccc21 [Enzastaurin, reference compound]",0,0,0,0,0,–,–
C[C@@H]1CCNC(=O)c2cc3ccc(C(=O)Nc4nc5ccccc5n4CCCN(C)C)cc3n21 [BI00645435],0,0,0,0,0,–,–
Cc1cccc(Cn2ccn3c(=O)cc(N4CCOCC4)nc23)c1 [GSK2297542A],0,0,0,0,0,–,–
COc1ccc(C[C@@H](CN)NC(=O)c2cc(Br)c(-c3ccnc4[nH]ccc34)s2)cc1 [GSK1389063A],0,0,0,0,0,–,–
O=C(Nc1c(F)cccc1F)c1cc(C(=O)c2ccccc2F)c[nH]1 [GSK1326180A],0,0,0,0,0,–,–
Cc1cccc(Nc2nc(N[C@H]3CCNC3)ncc2C(N)=O)c1 [GSK2197149A],0,0.1293,0,0,0,–,64.6 nM

# Further lines, with some results ahead:
CATDS (ACOX1),CATDS (AAK1),CATDS (ABL1),CATDS (ABL2),CATDS (ACAD11),potency estimated from few doses (AAK1; [1]),Structure (SMILES),potency estimated from few doses (AAK1)
0,0,0,0,0,–,COc1cc2ncnc(Nc3cccc(Cl)c3F)c2cc1O[C@H]1CC[C@H]([C@@H]2NCCNC2=O)CC1 [BI00133844],–
0,0,0,0,0,–,O=c1cc(N2CCOCC2)nc2n(Cc3cccc4ccccc34)ccn12 [GSK2333389A],–
0,0,0,0,0,> 1000 nM,Cc1occc1-c1nc(N)c(OC[C@@H](N)Cc2c[nH]c3ccccc23)cc1-c1cc2c(C)n[nH]c2cn1 [GSK1660450B],–
0,0.2016,0,0,0,820 nM,NCC(NCc1ccc(-c2ccnc3[nH]ccc23)s1)c1ccccc1 (stereo not drawn) [GSK1321565A],–
0,0,0,0,0,> 1000 nM,COC(=O)c1cccc(NC(=O)NC2CCN(c3ccnc(Nc4cc(OC)c(OC)c(OC)c4)n3)C2)c1 (stereo not drawn) [GSK1379767A],–
0,0,0,0,0,–,NC(=O)c1sc(-n2cnc3ccccc32)cc1OCc1ccccc1F [GSK1024306A],–
0,0,0,0,0,–,O=c1cc(N2CCOCC2)nc2n(Cc3ccc(F)c(Cl)c3)ccn12 [GSK2297099A],–
0,0.08249,0,0,0,194 nM,Nc1nccc(-c2ccc3c(N)n[nH]c3c2)n1 [GSK1034945A],–
0,0,0,0,0,–,O=c1[nH]cc(-c2ccc(N3CCOCC3)cc2)c2sc(-c3cn[nH]c3)cc12 [GSK2276055A],–
0,0,0,0,0,–,CC1=C(C(=O)Nc2ccc3[nH]ncc3c2)C(c2ccc(F)cc2)NC(=O)N1 (stereo not drawn) [GSK180736A],–
0,0,0,0,0,–,COc1cc(N2CCN(C(C)C)CC2)ccc1Nc1nc(Nc2cccc3ncccc23)c2cc[nH]c2n1 [GSK1511931A],–
0,0.01281,0.0136,0.02269,0.01477,–,Cc1ccc(NC(=O)Nc2ccccc2F)cc1-c1ccc(C(=O)Nc2ccncc2)cc1 [GSK1398477_KCGS],–
0,0,0,0,0,–,Cc1cccc(-c2cc(Nc3ccncc3)c3ccccc3n2)n1 [GSK223675A],–
0,0,0,0,0,–,NC[C@H](CC1CCCCC1)NC(=O)c1cc(Br)c(-c2ccnc3[nH]ccc23)s1 [GSK1581427A],–
0,0,0,0,0,–,Cc1c(Cn2ccn3c(=O)cc(N4CCOCC4)nc23)cccc1C(F)(F)F [GSK2289044B],–
0,0.03638,0,0,0,79.6 nM,NCC(NC(=O)c1cc(-c2ccnc3[nH]ccc23)cs1)c1ccccc1 (stereo not drawn) [GSK1229959A],–
0,0.118,0,0,0,108 nM,CNc1nccc(-c2ccc3c(N)n[nH]c3c2)n1 [GSK2206003A],–
